Data reported in US5292737A, “N,N'-bis(sulfonamido)-2-amino-4-iminonaphthalen-1-ones and N,N'-bis(amido)-2-amino-4-iminonaphthalen-1-ones” (Sphinx Pharmaceuticals Corporation, priority 1992, dated 1994).
Like-named read-outs stand apart in the source and are kept apart here.

Experiments:
Assay type in all cases: biochemical
PKC isoenzyme βII = target: T1, PKC isoenzyme βII (Homo sapiens, UniProt P05771); assay: Protein kinase C inhibition assay, PKC isoenzyme βII
T1 construct: made in house; host or cells: baculovirus-insect cell expression system
T1 sequence (P05771 1-673 isoform P05771-2): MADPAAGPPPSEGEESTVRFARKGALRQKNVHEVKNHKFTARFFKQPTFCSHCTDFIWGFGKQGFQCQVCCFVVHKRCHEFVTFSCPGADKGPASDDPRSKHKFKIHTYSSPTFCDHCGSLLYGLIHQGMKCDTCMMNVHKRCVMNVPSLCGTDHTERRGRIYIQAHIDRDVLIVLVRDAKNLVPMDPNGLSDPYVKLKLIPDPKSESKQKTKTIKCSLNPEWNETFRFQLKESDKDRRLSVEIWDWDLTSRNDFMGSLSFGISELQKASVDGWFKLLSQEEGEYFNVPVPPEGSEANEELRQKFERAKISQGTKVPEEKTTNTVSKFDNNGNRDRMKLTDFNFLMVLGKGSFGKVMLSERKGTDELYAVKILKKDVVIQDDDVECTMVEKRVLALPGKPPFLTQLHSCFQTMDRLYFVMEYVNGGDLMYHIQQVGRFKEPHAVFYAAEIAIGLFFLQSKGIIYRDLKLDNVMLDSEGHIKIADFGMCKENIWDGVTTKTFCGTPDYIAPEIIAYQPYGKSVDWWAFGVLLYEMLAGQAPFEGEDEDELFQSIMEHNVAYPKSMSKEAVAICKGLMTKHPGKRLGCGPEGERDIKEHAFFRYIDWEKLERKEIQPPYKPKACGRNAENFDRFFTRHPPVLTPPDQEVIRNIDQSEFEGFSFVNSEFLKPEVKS
Description: (§1) A protein kinase C (PKC) assay is designed to duplicate the in vivo conditions required for protein kinase C function. Therefore, pH, salt and cofactor concentrations are similar to physiologic levels. Either lysine rich histone H1 (H1) or Myelin basic protein (Mbp) are used in the assay as the phosphorylation acceptor-protein because they are readily available and serve as good substrates for protein kinase C. Enzyme was prepared from baculovirus-insect cell expression systems.
(§2) In the screening assay, phosphatidylserine (PS) and DAG were co-sonicated to form unilamellar and multilamellar vesicles. The concentration of lipids in the assay were suboptimal to maximize the detection potential of the assay for inhibitors or activators. Potential effector compounds were added to the assay in dimethylsulfoxide at four concentrations to give final inhibitor concentrations of 1, 10, 50, and 150 μM, respectively.
(§3) The assay was started with the addition of enzyme and stopped after 10 min by the addition of 25% trichloroacetic acid (TCA) and 1.0 mg/ml bovine serum albumin (BSA). The radioactive histone product was retained and washed on glass fiber filters that allow the unreacted P-ATP to pass through. The amount of phosphorylation was determined by measuring radioactivity with a scintillation counter. Controls were included in every assay to measure background activity in the absence of enzyme, activity in the absence of lipids, and the maximum enzyme activity with saturating levels of the activator lipids.
(§4) Results of the protein kinase C assay are shown in Table 4 in columns labeled α, βII, γ, δ, ε, and .zeta. which represent various PKC isoenzymes. Results are show as IC50, which is the concentration of test compound needed to inhibit 50% of the protein kinase C activity in controls.

PKC isoenzyme ε = target: T2, PKC isoenzyme ε (Homo sapiens, UniProt Q02156); assay: Protein kinase C inhibition assay, PKC isoenzyme ε
T2 construct: made in house; host or cells: baculovirus-insect cell expression system
T2 sequence (Q02156 1-737): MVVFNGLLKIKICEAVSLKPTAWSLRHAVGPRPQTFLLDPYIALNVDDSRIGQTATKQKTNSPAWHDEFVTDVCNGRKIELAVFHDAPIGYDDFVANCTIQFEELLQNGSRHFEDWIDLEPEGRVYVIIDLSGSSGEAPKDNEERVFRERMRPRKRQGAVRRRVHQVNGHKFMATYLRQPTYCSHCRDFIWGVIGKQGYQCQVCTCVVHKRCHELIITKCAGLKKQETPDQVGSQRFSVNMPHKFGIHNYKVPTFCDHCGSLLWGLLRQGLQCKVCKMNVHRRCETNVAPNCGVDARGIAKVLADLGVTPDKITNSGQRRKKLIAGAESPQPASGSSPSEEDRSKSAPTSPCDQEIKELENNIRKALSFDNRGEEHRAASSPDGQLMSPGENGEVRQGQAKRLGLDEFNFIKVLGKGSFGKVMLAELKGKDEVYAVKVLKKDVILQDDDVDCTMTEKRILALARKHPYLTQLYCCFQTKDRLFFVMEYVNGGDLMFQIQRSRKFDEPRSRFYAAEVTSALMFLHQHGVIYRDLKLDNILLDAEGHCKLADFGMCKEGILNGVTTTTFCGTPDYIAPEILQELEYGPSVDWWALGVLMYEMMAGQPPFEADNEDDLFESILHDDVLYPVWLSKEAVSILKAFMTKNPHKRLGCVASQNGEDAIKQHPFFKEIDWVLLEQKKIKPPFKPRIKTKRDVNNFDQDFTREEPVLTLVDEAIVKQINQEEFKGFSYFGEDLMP
Description: as §1, §2, §3, §4

PKC isoenzyme α = target: T3, PKC isoenzyme α (Homo sapiens, UniProt P17252); assay: Protein kinase C inhibition assay, PKC isoenzyme α
T3 construct: made in house; host or cells: baculovirus-insect cell expression system
Description: as §1, §2, §3, §4

Compound	IC50 (PKC isoenzyme βII; read-out: IC50 PKC βII)	IC50 (PKC isoenzyme ε; read-out: IC50 PKC ε)	IC50 (PKC isoenzyme α; read-out: IC50 PKC α)	IC50 (PKC isoenzyme βII; IC50 PKC βII)	IC50 (PKC isoenzyme ε; IC50 PKC ε)	IC50 (PKC isoenzyme α; IC50 PKC α)
O=C1C(Nc2ccc(S(=O)(=O)NCCNc3ccc([N+](=O)[O-])cn3)cc2)=CC(=Nc2ccc(S(=O)(=O)NCCNc3ccc([N+](=O)[O-])cn3)cc2)c2ccccc21 [Compound 3ac]				89 µM	> 150 µM	85 µM
Cc1cc(C)nc(NS(=O)(=O)c2cccc(N=C3C=C(Nc4cccc(S(=O)(=O)Nc5cc(C)cc(C)n5)c4)C(=O)c4ccccc43)c2)c1 [Compound 3ae]	52 µM	> 150 µM	31 µM			
COc1cc(NS(=O)(=O)c2ccc(N=C3C=C(Nc4ccc(S(=O)(=O)Nc5cc(OC)cc(OC)c5)cc4)C(=O)c4ccccc43)cc2)cc(OC)c1 [Compound 3af]	143 µM	111 µM	102 µM			
Cc1cc(C)nc(NS(=O)(=O)c2cc(N=C3C=C(Nc4ccc(C)c(S(=O)(=O)Nc5cc(C)cc(C)n5)c4)C(=O)c4ccccc43)ccc2C)c1 [Compound 3ag]	17 µM	8 µM	7 µM			
Cc1cc(C)nc(NC(=O)c2ccc(N=C3C=C(Nc4ccc(C(=O)Nc5cc(C)cc(C)n5)cc4)C(=O)c4ccccc43)cc2)c1 [Compound 3ah]	145 µM	> 150 µM	136 µM			
Cc1cc(C)nc(NC(=O)c2ccc(N=C3C=C(Nc4ccc(C(=O)Nc5nc(C)cc(C)n5)cc4)C(=O)c4ccccc43)cc2)n1 [Compound 3ai]	101 µM	> 105 µM	56 µM			
Cc1noc(NS(=O)(=O)c2ccc(N=C3C=C(Nc4ccc(S(=O)(=O)Nc5onc(C)c5C)cc4)C(=O)c4ccccc43)cc2)c1C [Compound 3b]	29 µM	143 µM	30 µM			
Cc1cc(C)nc(NS(=O)(=O)c2ccc(N=C3C=C(Nc4ccc(S(=O)(=O)Nc5nc(C)cc(C)n5)cc4)C(=O)c4ccccc43)cc2)n1 [Compound 3c]	7 µM	> 150 µM	17 µM			
Cc1cc(NS(=O)(=O)c2ccc(N=C3C=C(Nc4ccc(S(=O)(=O)Nc5cc(C)nc(C)n5)cc4)C(=O)c4ccccc43)cc2)nc(C)n1 [Compound 3d]	31 µM	> 150 µM	37 µM			
Cc1nnc(NS(=O)(=O)c2ccc(N=C3C=C(Nc4ccc(S(=O)(=O)Nc5nnc(C)s5)cc4)C(=O)c4ccccc43)cc2)s1 [Compound 3e]	14 µM	> 150 µM	17 µM			
Cc1ccnc(NS(=O)(=O)c2ccc(N=C3C=C(Nc4ccc(S(=O)(=O)Nc5nccc(C)n5)cc4)C(=O)c4ccccc43)cc2)n1 [Compound 3f]	23 µM	> 150 µM	28 µM			
COc1cc(NS(=O)(=O)c2ccc(N=C3C=C(Nc4ccc(S(=O)(=O)Nc5cc(OC)nc(OC)n5)cc4)C(=O)c4ccccc43)cc2)nc(OC)n1 [Compound 3g]	25 µM	> 150 µM	32 µM			
COc1cnc(NS(=O)(=O)c2ccc(N=C3C=C(Nc4ccc(S(=O)(=O)Nc5ncc(OC)cn5)cc4)C(=O)c4ccccc43)cc2)nc1 [Compound 3h]	53 µM	> 150 µM	105 µM			
O=C1C(Nc2ccc(S(=O)(=O)Nc3ccccn3)cc2)=CC(=Nc2ccc(S(=O)(=O)Nc3ccccn3)cc2)c2ccccc21 [Compound 3i]	26 µM	> 150 µM	23 µM			
COc1ccc(NS(=O)(=O)c2ccc(N=C3C=C(Nc4ccc(S(=O)(=O)Nc5ccc(OC)nn5)cc4)C(=O)c4ccccc43)cc2)nn1 [Compound 3j]	45 µM	> 150 µM	67 µM			
O=C1C(Nc2ccc(S(=O)(=O)Nc3ccc(Cl)nn3)cc2)=CC(=Nc2ccc(S(=O)(=O)Nc3ccc(Cl)nn3)cc2)c2ccccc21 [Compound 3l]	24 µM	> 150 µM	27 µM			
O=C1C(Nc2ccc(S(=O)(=O)Nc3cnc4ccccc4n3)cc2)=CC(=Nc2ccc(S(=O)(=O)Nc3cnc4ccccc4n3)cc2)c2ccccc21 [Compound 3m]	22 µM	> 150 µM	8 µM			
O=C1C(Nc2ccc(S(=O)(=O)NCc3ccccn3)cc2)=CC(=Nc2ccc(S(=O)(=O)NCc3ccccn3)cc2)c2ccccc21 [Compound 3n]	141 µM	> 150 µM	75 µM			

More lines, main results first:

IC50 (PKC isoenzyme βII; read-out: IC50 PKC βII)	IC50 (PKC isoenzyme ε; read-out: IC50 PKC ε)	IC50 (PKC isoenzyme α; read-out: IC50 PKC α)	Compound	IC50 (PKC isoenzyme βII; IC50 PKC βII)	IC50 (PKC isoenzyme ε; IC50 PKC ε)	IC50 (PKC isoenzyme α; IC50 PKC α)
24 µM	145 µM		Cc1cc(NS(=O)(=O)c2ccc(N=C3C=C(Nc4ccc(S(=O)(=O)Nc5cc(C)on5)cc4)C(=O)c4ccccc43)cc2)no1 [Compound 6a]			
> 150 µM	> 150 µM	113 µM	COc1cc(NS(=O)(=O)c2ccc(N=C3C=C(Nc4ccc(S(=O)(=O)Nc5cc(OC)cc(OC)c5)cc4)C(=O)c4ccccc43)cc2)cc(OC)c1 [Compound 6af]			
28 µM	35 µM	22 µM	Cc1cc(C)nc(NS(=O)(=O)c2cc(N=C3C=C(Nc4ccc(C)c(S(=O)(=O)Nc5cc(C)cc(C)n5)c4)C(=O)c4ccccc43)ccc2C)c1 [Compound 6ag]			
14 µM	15 µM	7 µM	Cc1cc(C)nc(NS(=O)(=O)c2ccc(N=C3C=C(Nc4ccc(S(=O)(=O)Nc5nc(C)cc(C)n5)cc4)C(=O)c4ccccc43)cc2)n1 [Compound 6c]			
39 µM		41 µM	Cc1cc(NS(=O)(=O)c2ccc(N=C3C=C(Nc4ccc(S(=O)(=O)Nc5cc(C)nc(C)n5)cc4)C(=O)c4ccccc43)cc2)nc(C)n1 [Compound 6d]			
24 µM		109 µM	Cc1nnc(NS(=O)(=O)c2ccc(N=C3C=C(Nc4ccc(S(=O)(=O)Nc5nnc(C)s5)cc4)C(=O)c4ccccc43)cc2)s1 [Compound 6e]			
		24 µM	Cc1ccnc(NS(=O)(=O)c2ccc(N=C3C=C(Nc4ccc(S(=O)(=O)Nc5nccc(C)n5)cc4)C(=O)c4ccccc43)cc2)n1 [Compound 6f]			
33 µM		61 µM	COc1cc(NS(=O)(=O)c2ccc(N=C3C=C(Nc4ccc(S(=O)(=O)Nc5cc(OC)nc(OC)n5)cc4)C(=O)c4ccccc43)cc2)nc(OC)n1 [Compound 6g]			
97 µM		108 µM	COc1cnc(NS(=O)(=O)c2ccc(N=C3C=C(Nc4ccc(S(=O)(=O)Nc5ncc(OC)cn5)cc4)C(=O)c4ccccc43)cc2)nc1 [Compound 6h]			
47 µM		14 µM	O=C1C(Nc2ccc(S(=O)(=O)Nc3ccccn3)cc2)=CC(=Nc2ccc(S(=O)(=O)Nc3ccccn3)cc2)c2ccccc21 [Compound 6i]			
47 µM		106 µM	COc1ccc(NS(=O)(=O)c2ccc(N=C3C=C(Nc4ccc(S(=O)(=O)Nc5ccc(OC)nn5)cc4)C(=O)c4ccccc43)cc2)nn1 [Compound 6j]			
29 µM	> 150 µM	44 µM	O=C1C(Nc2ccc(S(=O)(=O)Nc3ccc(Cl)nn3)cc2)=CC(=Nc2ccc(S(=O)(=O)Nc3ccc(Cl)nn3)cc2)c2ccccc21 [Compound 6l]			
23 µM	141 µM	9 µM	O=C1C(Nc2ccc(S(=O)(=O)Nc3cnc4ccccc4n3)cc2)=CC(=Nc2ccc(S(=O)(=O)Nc3cnc4ccccc4n3)cc2)c2ccccc21 [Compound 6m]			
> 150 µM	149 µM	134 µM	O=C1C(Nc2ccc(S(=O)(=O)NCc3ccccn3)cc2)=CC(=Nc2ccc(S(=O)(=O)NCc3ccccn3)cc2)c2ccccc21 [Compound 6n]			
